# In patent publication US11963966B2, “Compositions and methods for treating ovarian tumors” (Dana-Farber Cancer Institute, Inc., priority 2017, dated 2024):
# Tests used:
# [1] = system: platinum-resistant ex vivo spheroid cultures of patients DF3266, DF3288, DF3291; assay: Drug sensitivity testing with the growth in low attachment (GILA) assay; assay type: cell-based; settings: for Sensitivity of spheroid cultures: all spheroid cultures, similar dose range, cisplatin excepted in DF3266 and DF3288
# Procedure: (§1) FIG. 6A-FIG. 6G are a series of graphs and images depicting the impact of JAK/STAT-inhibition on spheroid formation, invasion and killing ex vivo and in vitro. FIG. 6A a histogram (FIG. 11B), showing drug screening with 14 compounds (at 1 μM) inhibiting the JAK/STAT pathway in OVACR4. Relative viability compared to DMSO control measured by CTG. […] The same library was screened in 2D-cultures of OVACR4 (FIG. 11A), and 2D-cultures of OVACR8 (FIG. 11C) and 3D-cultures of OVACR8 (FIG. 11D). FIG. 6B is a series of plots showing drug sensitivity testing using the GILA assay in platinum-resistant ex vivo spheroid cultures of patients DF3291 and DF3266, The X-axis indicates the log μM concentration of drugs indicated in the legend, Y-axis indicates the percentage of luminescence signal as indicator for viability relatively to DMSO treated cells. In both patients, half maximal effective concentration (EC50) were ˜100 nM and ˜10 nM, respectively, while other drugs routinely used for the treatment of (platinum-resistant) ovarian cancer had EC50>10 μM. FIG. 6C is a series of images of microscopic analysis of spheroids with different drug treatments to highlight the morphologic changes during therapy with drugs listed. Inhibition of JAK/STAT pathway disrupts ex vivo spheroid cultures. […] The X-axis indicates established ovarian cancer cell line ID. Y-axis indicates the relative number of formed spheroids when treated with either JSI-124 or carboplatin compared to untreated parental controls. Error bars indicate the standard deviation from the mean number of spheroids. […] JAK/STAT inhibition prevents spheroid formation. […] The Y-axis indicates the clearance ability (using arbitrary units). 20 spheroids clusters were analyzed for each iteration. Data is shown as mean (horizontal bar), interquartile range (box), and minimum and maximum (whiskers). Statistical analysis was performed using 1-way analysis of variance (ANOVA) and post hoc Tukey-Kramer **P<0.05. […] FIG. 6G is a histogram showing the inhibition of the JAK/STAT pathway.
# Single-cell RNA-sequencing was performed on these platinum-resistant patient samples, using the growth in low attachment (GILA) assay (Rotem et al., 2015 Proc. Natl. Acad. Sci. U.S.A, 112:5708-5713; B. Izar and A. Rotem, 2016 Curr. Protoc. Mol. Biol., 116:28.8.1-28.8.12). […] In contrast, all spheroid cultures were resistant to carboplatin, cisplatin, olaparib and paclitaxel at a similar dose range, with the exception of cisplatin with an EC50 of ˜10 μM in patients DF3266 and DF3288.
# [2] = system: PDX models DF20, DF68, DF101; assay: Carboplatin treatment of ovarian cancer PDX models, tumor volume and BLI; assay type: in vivo, mice; settings: followed by subsequent tumor outgrowth
# Procedure: FIG. 4A-FIG. 4E are a series of graphs depicting comparisons of expression profiles across patient-derived xenograft (PDX) models before and after recurrence. […] FIG. 4A is a plot of tumor burden of PDX model DF20. PDX model DF20 response to carboplatin was assessed. Triangles indicate vehicle mice, squares indicate relapsed mice, and asterisks indicates MRD animals. MRD and relapsed tumors were treated with three cycles of carboplatin and harvested for single-cell RNA-sequencing at the last indicated time point in this graph. FIG. 4B is a heatmap showing the similarities and clustering of average expression profiles for each of the samples corresponding to three PDX models, with samples collected before treatments (vehicle), MRD and full relapse for each of the models. FIG. 4C is a plot of expression of highly-abundant transcripts in single-cells indicate disproportionally high expression of key nodes of the JAK/STAT pathway, including STAT2 and STAT3, and others.
# Next, platinum-resistance was modeled using PDX-models. […] Single-cells were harvested for sequencing from untreated animals (vehicle) and the carboplatin-treated animals were monitored for tumor regression and relapse. […] Accordingly, gene sets were detected which were consistently altered across two or three samples of MRD (FIG. 4D) or relapse (FIG. 4E), and contribute to drug resistance or tumor relapse. […]
# [3] = system: established ovarian cancer cell lines (OVCAR4, OVCAR8, OVASHO, TYKNU, Kuramachi); assay: Spheroid formation in low adherent surface culture; assay type: cell-based; settings: same treatment doses as JSI-124
# Procedure: as §1, with “pathway. […]” for “pathway.”
smiles,measurement,setting,value
N.N.[Cl][Pt][Cl] [cisplatin],Sensitivity of spheroid cultures,[1],resistant
same,EC50,"[1]; patients DF3266 and DF3288, read-out: EC50",~10 µM
N.N.O=C([O-])C1(C(=O)[O-])CCC1.[Pt+2] [carboplatin],"Tumor response (tumor volume, BLI signal)",[2],brisk response
same,Effect on spheroids formation,[3],modest to no effects
same,Sensitivity of spheroid cultures,[1],resistant
CC(=O)O[C@H]1C(=O)[C@@]2(C)[C@H]([C@H](OC(=O)c3ccccc3)[C@]3(O)C[C@H](OC(=O)[C@H](O)[C@@H](NC(=O)c4ccccc4)c4ccccc4)C(C)=C1C3(C)C)[C@]1(OC(C)=O)CO[C@@H]1C[C@@H]2O [paclitaxel],Sensitivity of spheroid cultures,[1],resistant
O=C(c1cc(Cc2n[nH]c(=O)c3ccccc23)ccc1F)N1CCN(C(=O)C2CC2)CC1 [olaparib],Sensitivity of spheroid cultures,[1],resistant
